Data: patent publication USRE49351E1, “Cytoprotective agent” (Biogen MA Inc., priority 2009, dated 2023)
Marks after values point to notes of the source that are not given here.

Legend:
Assay type in all cases: in vivo
[1] = test system: mouse cerebral infarction model; experiment: Mouse cerebral infarction model: infarction area percentage, neurological symptom, edema percentage; conditions: evaluated 24 h, mean ± SE, n=6
Description: Using male ddY line mouse (body weight 35 to 45 g), a cerebral infarction model was produced and evaluated about neurological symptoms and the infarction area percentage according to methods similar to the production method and the evaluation method for the Mongolian gerbil cerebral infarction model.
The improvement effectiveness of SMTP-7 and alteplase on the infarction area percentage, the neurological symptom and the edema percentage was compared using the mouse cerebral infarction model. At the same time the dose dependence of the degree of improvement of SMTP-7 was investigated.
SMTP-7 and alteplase were prepared as in Example 2. Ten mg/kg each was administered into the femoral vein 1 hour or 3 hours after the initiation of ischemia in a mouse cerebral infarction model, wherein 10% was administered by a bolus administration, and the rest by continuous administration over 30 min. Further, 0.1 mg/kg or 1 mg/kg of SMTP-7 was administered into the femoral vein 1 hour after the initiation of ischemia in a mouse cerebral infarction model, wherein 10% was administered by a bolus administration, and the rest by continuous administration over 30 min. Six mice were used for each condition.
Twenty four hours after the initiation of the operation neurological symptom of each mouse was examined to rate the neurological symptom. Then the brain of each mouse was extirpated and the infarction area was measured and the infarction area percentage was determined. The edema percentage was determined according to the following formula: Edema percentage (%)=(Volume of the cerebral hemisphere affected by ischemia−Volume of the other side cerebral hemisphere)/Volume of the other side cerebral hemisphere×100 […]

[2] = test system: IL-1β; experiment: Real time RT-PCR of inflammation parameter IL-1β in brain of mouse cerebral infarction model; conditions: 10 mg/kg, ipsilesional (right) brain at 24 h, mean ± SE, n=6
Procedure: (§1) Using the Mouse Cerebral Infarction model changes of parameters related to inflammation among the triprenyl phenol compound (10 mg/kg) administration groups, the alteplase (10 mg/kg) administration groups, and the alteplase (10 mg/kg) and aspirin (10 mg/kg) combined administration group were evaluated by a real time RT-PCR method. As the parameters IL-1β, TNF-α nd IL-6 were selected, which were typical parameters related to inflammation.
(§2) The administrations of SMTP-7 (10 mg/kg) and alteplase (10 mg/kg) were initiated 1 hour or 3 hours after the initiation of ischemia. The administration method was same as Example 3.
(§3) The combined administration of alteplase (10 mg/kg) and aspirin (10 mg/kg) was initiated 3 hours after the initiation of ischemia. Alteplase was administered same as in Example 3, and aspirin was administered by a bolus intravenous injection into the femoral vein.
(§4) The administrations of SMTP-6, SMTP-22, SMTP-25, SMTP-43 and SMTP-44D were initiated 1 hour after the initiation of ischemia. The administration method was same as Example 5.
(§5) After 24 hours of the initiation of the operation, a Krebs-HEPES buffer was perfused from the heart and then the brain was extirpated.
(§6) After preparing brain slices, the fourth slice was divided to the left brain and the right brain, and homogenized respectively with 1 mL of TRIZOL (registered trademark) reagent (Invitrogen). After incubating at room temperature for 5 min, adding chloroform (0.2 mL), and mixing for 15 sec, incubation was carried out at room temperature for 3 min. The samples were centrifuged at 4° C. for 15 min at 12,000×g.
(§7) Since RNA moved to a water layer, the water layer was collected and, after addition of 0.5 mL of isopropyl alcohol, followed by incubation at room temperature for 10 min, centrifuged at 4° C. for 10 min at 12,000×g. Since a pellet was formed in a tube after the centrifugation, the supernatant was removed, and 1 mL of 75% ethanol was added followed by stirring to wash the pellet. The mixture was then centrifuged at 4° C. for 5 min at 7,500×g. After removing again the supernatant, being left for natural drying for 8 min, the pellet containing the RNA was dissolved in 100 μL of RNase-free water. cDNA was produced by reverse transcription of the RNA using a SuperScript (registered trademark) VILOTM cDNA Synthesis Kit (Invitrogen) by a Thermal Cycler 2720 (Applied Biosystems). More particularly, 4 μL of 5×VILOTM Reaction Mix, 2 μL of 10× SuperScript (registered trademark) Enzyme Mix, and 1 μg of each RNA were mixed and diluted to 20 μL with RNase-free water.
(§8) Reverse transcription was conducted using the above samples under the following conditions. After reacting at 25° C. for 10 min, at 42° C. for 60 min, and at 85° C. for 5 min, the product was stored at 4° C. With the cDNA as a template real time RT-PCR was carried out by ABI PRISM 7000 using SYBR (registered trademark) GreenERTM qPCR SuperMix for ABI PRISM (registered trademark; Invitrogen). […]
(§9) Real time RT-PCR was conducted using the above samples under the following conditions. […] Changes of the respective parameters were determined by a calibration curve method. β-actin was measured as an internal control, and the respective parameters were calculated as a relative value based on the β-actin. […]

[3] = test system: TNF-α; experiment: Real time RT-PCR of inflammation parameter TNF-α in brain of mouse cerebral infarction model; conditions: 10 mg/kg, ipsilesional (right) brain at 24 h, mean ± SE, n=6
Procedure: as §1, §2, §3, §4, §5, §6, §7, §8, §9

[4] = test system: IL-6; experiment: Real time RT-PCR of inflammation parameter IL-6 in brain of mouse cerebral infarction model; conditions: 10 mg/kg, ipsilesional (right) brain at 24 h, mean ± SE, n=6
Procedure: as §1, §2, §3, §4, §5, §6, §7, §8, §9

[5] = 10 mg/kg femoral vein, administration initiated 1 hr after ischemia
[6] = administration initiated 1 hr after ischemia
[7] = 0.1 mg/kg femoral vein, administration 1 hour after ischemia
[8] = 1 mg/kg femoral vein, administration 1 hour after ischemia
[9] = 10 mg/kg femoral vein, administration initiated 3 hr after ischemia
[10] = administration initiated 3 hr after ischemia

Molecule	Edema percentage [1, 5]	Infarction area [1, 5]	Neurological scores [1, 5]	IL-1β, relative value to β-actin [2, 6]	TNF-α, relative value to β-actin [3, 6]	IL-6, relative value to β-actin [4, 6]	Edema percentage [1, 7]	Infarction area [1, 7]	Neurological scores [1, 7]	Edema percentage [1, 8]	Infarction area [1, 8]	Neurological scores [1, 8]	Edema percentage [1, 9]	Infarction area [1, 9]	Neurological scores [1, 9]	IL-1β, relative value to β-actin [2, 10]	TNF-α, relative value to β-actin [3, 10]	IL-6, relative value to β-actin [4, 10]
CC(C)=CCC/C(C)=C/CCC1(C)Oc2c(c(O)cc3c2CN(C(Cc2c[nH]c4ccccc24)C(=O)O)C3=O)CC1O (stereo not drawn) [SMTP-6]	9.80 ± 2.74%	9.81 ± 1.43%	3 ± 0.447	0.165 ± 0.0930	0.261 ± 0.119	0.220 ± 0.0850	–	–	–	–	–	–	–	–	–	–	–	–
CC(C)=CCC/C(C)=C/CC[C@@]1(C)Oc2c(c(O)cc3c2CN(CCC[C@@H](C(=O)O)N2Cc4c(cc(O)c5c4O[C@](C)(CC/C=C(\C)CCC=C(C)C)[C@@H](O)C5)C2=O)C3=O)C[C@@H]1O [SMTP-7]	5.81 ± 0.967 %	4.87 ± 1.06 %	1.67 ± 0.422	0.0314 ± 0.0171	0.151 ± 0.0313	0.0356 ± 0.0138	10.15 ± 1.817%	10.08 ± 2.07%	2.5 ± 0.5	8.81 ± 2.292%	6.66 ± 0.71 %	2 ± 0.632	6.23 ± 1.07 %	5.05 ± 0.576 %	1.33 ± 0.558	0.0728 ± 0.0380	0.147 ± 0.0293	0.0651 ± 0.0308
alteplase [reference compound]	3.63 ± 2.67 %	6.15 ± 1.94 %	1.17 ± 0.749	0.0408 ± 0.0173	0.164 ± 0.0332	0.0582 ± 0.0254	–	–	–	–	–	–	12.6 ± 1.84%	11.9 ± 2.26%	2.50 ± 0.500	0.347 ± 0.172**^,##	0.381 ± 0.155	0.341 ± 0.138**^,#
